Seven compounds from DBAASP can be followed below.

A word on the MIC: it is the lowest concentration found to suppress growth.

The structures appear in SMILES notation. Values after ≈ are worked out from the molar mass of the structure shown.

Test [1] has as its system Escherichia coli ATCC 25922. Briefly: ≥ marks a high value that may be exact or a test limit, other limits are often not marked, values filed in µg/mL are converted to µM.
Test [2] has as its system Staphylococcus aureus ATCC 25923. Described as above.

For the compound `CC[C@H](C)[C@H](NC(=O)CN)C(=O)N[C@@H](CCCCN)C(=O)N[C@@H](CCCCN)C(=O)N[C@@H](Cc1ccccc1)C(=O)N[C@@H](CC(C)C)C(=O)N[C@@H](Cc1cnc[nH]1)C(=O)N[C@H](C(=O)N[C@H](C(=O)N[C@@H](Cc1c[nH]c2ccccc12)C(=O)N[C@@H](CCCCN)C(=O)N[C@@H](Cc1ccccc1)C(=O)N[C@H](C(=O)N[C@@H](CCCCN)C(=O)N[C@@H](C)C(=O)N[C@@H](Cc1ccccc1)C(=O)N[C@H](C(=O)NCC(=O)N[C@@H](CCC(=O)O)C(=O)N[C@H](C(=O)N[C@@H](CCSC)C(=O)N[C@@H](CC(N)=O)C(=O)N[C@@H](CO)C(=O)O)[C@@H](C)CC)C(C)C)[C@@H](C)CC)[C@@H](C)CC)[C@@H](C)CC` [GIKKFLHIIWKFIKAFVGEIMNS], the minimum inhibitory concentration (MIC) in test [1] was determined as 16 µM (≈ 43.5 µg/mL). The same measure, in the same setting: the same measure for `CC[C@H](C)[C@H](NC(=O)CN)C(=O)N[C@@H](CC(C)C)C(=O)N[C@@H](CO)C(=O)N[C@@H](CO)C(=O)N[C@@H](Cc1ccccc1)C(=O)N[C@@H](CCCCN)C(=O)NCC(=O)N[C@H](C(=O)N[C@@H](C)C(=O)N[C@@H](CCCCN)C(=O)NCC(=O)N[C@H](C(=O)N[C@@H](C)C(=O)N[C@@H](CCCCN)C(=O)N[C@@H](CC(=O)O)C(=O)N[C@@H](CC(C)C)C(=O)N[C@@H](C)C(=O)NCC(=O)N[C@@H](CCCCN)C(=O)N[C@@H](CC(C)C)C(=O)N[C@@H](CC(C)C)C(=O)N[C@@H](CCC(=O)O)C(=O)N[C@H](C(=O)N[C@@H](CC(C)C)C(=O)N[C@@H](CCCCN)C(N)=O)[C@@H](C)O)C(C)C)C(C)C` [GILSSFKGVAKGVAKDLAGKLLETLK]: 6.3 µM (≈ 16.7 µg/mL).

Consider `CC[C@H](C)[C@H](NC(=O)[C@H](C)NC(=O)[C@H](CCCCN)NC(=O)[C@H](CC(C)C)NC(=O)[C@H](CC(C)C)NC(=O)CN)C(=O)N[C@@H](CCCCN)C(=O)N[C@H](C(=O)N[C@@H](CC(C)C)C(=O)N[C@@H](CC(C)C)C(N)=O)[C@@H](C)O` [GLLKAIKTLL], for which the MIC in test [1] came out at 4.68 µM (≈ 5 µg/mL); in test [2], 9.35 µM (≈ 9.99 µg/mL). The corresponding values for `CC[C@H](C)[C@H](NC(=O)[C@H](Cc1ccccc1)NC(=O)[C@H](CCCCN)NC(=O)[C@H](CC(C)C)NC(=O)[C@H](CC(C)C)NC(=O)CN)C(=O)N[C@@H](CCCCN)C(=O)N[C@H](C(=O)N[C@@H](CC(C)C)C(=O)N[C@@H](CC(C)C)C(N)=O)[C@@H](C)O` [GLLKFIKTLL] are 1.75 µM (≈ 2 µg/mL) and 1.75 µM (≈ 2 µg/mL). The corresponding values for `CC[C@H](C)[C@H](NC(=O)[C@H](CCCN=C(N)N)NC(=O)[C@H](CCCCN)NC(=O)[C@H](CC(C)C)NC(=O)[C@H](CC(C)C)NC(=O)CN)C(=O)N[C@@H](CCCCN)C(=O)N[C@@H](Cc1ccccc1)C(=O)N[C@@H](CC(C)C)C(=O)N[C@@H](CC(C)C)C(N)=O` [GLLKRIKFLL] are 6.66 µM (≈ 7.99 µg/mL) and 6.66 µM (≈ 7.99 µg/mL). In the case of `CC[C@H](C)[C@H](NC(=O)[C@H](CC(=O)O)NC(=O)[C@@H](NC(=O)[C@@H](NC(=O)CN)C(C)C)C(C)C)C(=O)N[C@@H](CC(C)C)C(=O)N[C@@H](CCCCN)C(=O)NCC(=O)N[C@@H](C)C(=O)N[C@@H](C)C(=O)N[C@@H](CCCCN)C(=O)N[C@@H](CC(=O)O)C(=O)N[C@@H](CC(C)C)C(=O)N[C@@H](C)C(=O)NCC(=O)N[C@@H](Cc1cnc[nH]1)C(=O)N[C@@H](CC(C)C)C(=O)N[C@@H](C)C(=O)N[C@@H](CO)C(=O)N[C@@H](CCCCN)C(=O)N[C@H](C(=O)O)C(C)C` [GVVDILKGAAKDLAGHLASKV], in test [1], the MIC stood at 60.6 µM (≈ 125 µg/mL). On the same count and under the same terms, to `CC(C)C[C@H](NC(=O)[C@H](Cc1ccccc1)NC(=O)[C@H](C)NC(=O)[C@H](Cc1c[nH]c2ccccc12)NC(=O)[C@H](Cc1c[nH]c2ccccc12)NC(=O)[C@H](Cc1c[nH]c2ccccc12)NC(=O)[C@H](C)NC(=O)[C@H](Cc1ccccc1)NC(=O)[C@H](CCCCN)NC(=O)[C@H](CCCCN)NC(=O)[C@@H](N)C(C)C)C(=O)N[C@@H](CCCCN)C(=O)N[C@@H](CCCCN)C(N)=O` [VKKFAWWWAFLKK] belongs 2 µM (≈ 3.47 µg/mL).
